Columns and labels:
Thy-1 mRNA = experiment: Real-time PCR of retinal mRNA after ischaemia/reperfusion: Thy-1; format: in vivo, Wistar rats; settings: 100 μM SAC pre-treatment, 24 hours after I/R; control 3.28±1.09, vehicle 0.29±0.07; n=6
Procedure: (§1) The rats (200-250 g) were anaesthetized and placed in a stereotaxic frame. The anterior chamber of one eye was cannulated with a 30-gauge needle connected to a 0.9% saline reservoir; this caused a high IOP (HIOP) of 120 mmHg for 60 minutes. Eye fundus whitening and a low ERG response confirmed induction of an ischaemic insult. A sham procedure was carried out on the controls. Drug administration involved the pre-administration (15-minute before 60-minute HIOP induced retinal ischaemia) of SAC (25, 50, 100 μM) or vehicle (saline; control). The ischemic eye of each test rat was treated with or without a single intravitreous injection of 5 μl of the test compound. […] The levels of Thy-1, HIF-1 Alpha, VEGF and MMP-9 mRNAs present in the retinas were determined using a real-time PCR technique. […] Relative quantification (a comparative method) was performed using the house keeping gene Beta-actin as the internal standard. This process allows the normalized quantification of the mRNA target (Ct) and takes into account the differences in the amount of total RNA added to each reaction (ΔCt). The relative HIF-1 Alpha/VEGF/MMP-9 expression changes were calculated as fold changes relative to the control with respect to the calibrator (ΔΔCt), which was represented by the control retina. […] The data obtained for each treatment were pooled, and a total percentage change relative to the control was calculated. […]

HIF-1 Alpha mRNA = experiment: Real-time PCR of retinal mRNA after ischaemia/reperfusion: HIF-1 Alpha; format: in vivo, Wistar rats; settings: 100 μM SAC pre-treatment, 24 hours after I/R; control 0.56±0.15, vehicle 1.23±0.23; n=6
Procedure: as §1

MMP-9 mRNA = experiment: Real-time PCR of retinal mRNA after ischaemia/reperfusion: MMP-9; format: in vivo, Wistar rats; settings: 100 μM SAC pre-treatment, 24 hours after I/R; control 0.46±0.15, vehicle 1.97±0.38; n=6
Procedure: as §1

HIF-1 Alpha = experiment: ELISA of HIF-1 Alpha protein in RGC-5 cells under H2O2 oxidative stress; format: cell-based; settings: 100 μM SAC 15-minute pre-treatment, 500 μM H2O2 24 hours; control 1254.39±116.03, H2O2 1874.72±133.46; n=6
Procedure: (§2) In the enzyme-linked immunosorbent assay (ELISA), the cells (2.5×10^4 in each well) were plated into 96-well plates. Each well contains 200 μl of DMEM (control) without or with H2O2. Next, the cells were incubated at 37° C. for 1 day and then shifted to serum free medium for the following day. In order to stimulate oxidative stress, 500 μM H2O2 (Sigma-Aldrich 18304/k0250, St Louis, Mo., USA) was then added for 24 hours as described elsewhere. Depending on the experimental protocol, SAC or vehicle was added to some samples 15 minutes before adding H2O2. […] Total protein was determined using a bicinchoninic acid protein kit (Thermo Fisher Scientific Inc., IL, U.S.A.). The HIF-1 Alpha/VEGF/MMP-9 levels in the cells/medium were measured using various ELISA kits, namely HIF-1 Alpha (Uscn Life Science Inc., Wuhan 430056, China); VEGF-A (BMS277/2, Bender […], Austria) and MMP-9 Duoset (D911, R&D, Minneapolis, Minn., U.S.A.). […] The HIF-1 Alpha/VEGF/MMP-9 concentration of each sample was determined by constructing a standard curve using 100 μl of sample diluent containing various amounts of HIF-1 Alpha/VEGF/MMP-9 pure protein (0-1000 pg/ml). […] The absorbance (optical intensity, O.D.) was detected at 450 nm by spectrophotometer (ELx800, Biotek, Winooski, Vt., U.S.A.). […]

VEGF = experiment: ELISA of VEGF protein in RGC-5 cells under H2O2 oxidative stress; format: cell-based; settings: 100 μM SAC 15-minute pre-treatment, 500 μM H2O2 24 hours; control 91.91±21.72, H2O2 250.55±39.63; n=6
Procedure: as §2

## C=CCSC[C@H](N)C(=O)O [SAC, S-allyl L-cysteine]
Thy-1 mRNA
  Thy-1:β-actin mRNA ratio in the retina: 1.25±0.30
HIF-1 Alpha mRNA
  HIF-1 Alpha mRNA ratio in the retina: 0.76±0.09
MMP-9 mRNA
  MMP-9 mRNA ratio in the retina: 0.41±0.15
HIF-1 Alpha
  HIF-1 Alpha protein level (ELISA): 1256.47 ± 157.62 pg/mL
VEGF
  VEGF protein level (ELISA): 121.61 ± 12.54 pg/mL
